Assay results from BindingDB's records for doi:10.7270/Q2FT8P6X (n/a, 1994).

Target: Leukotriene B4 receptor (Cavia porcellus)
Test: Negative logarithm of affinity for leukotriene B4 (LTB4) receptor on guinea pig lung membranes

| Ki [nM] | SMILES |
| --- | --- |
| 63 | CCc1cc(-c2ccc(N(C)C)cc2)c(O)cc1OCCCCCC(C)(C)c1nn[nH]n1 |
| 66 | CCc1cc(-c2cccc(C(F)(F)F)c2)c(O)cc1OCCCCCC(C)(C)c1nn[nH]n1 |
